# Target: T1, CIRBP (Homo sapiens, UniProt Q14011)
# T1 construct: full length (1-172), wild type; His6-protein A tag removed by TEV protease; E. coli BL21-DE3 Star; 15N-labelled
# T1 sequence (Q14011 1-172): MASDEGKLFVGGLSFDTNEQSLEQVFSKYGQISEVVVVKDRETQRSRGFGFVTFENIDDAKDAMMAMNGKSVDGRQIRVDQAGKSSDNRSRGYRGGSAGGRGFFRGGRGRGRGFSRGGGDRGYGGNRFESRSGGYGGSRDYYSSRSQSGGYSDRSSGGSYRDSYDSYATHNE
# Test: 1H-15N HSQC NMR titration
# Type: binding
# Settings: not given
# Text: 1H-15N HSQC NMR titration on CIRBP | ATP binding to CIRBP is in the fast exchange regime with an associated KD
row,Kd,SMILES
1,2900 ± 1400 µM,Nc1ncnc2c1ncn2[C@@H]1O[C@H](COP(=O)(O)OP(=O)(O)OP(=O)(O)O)[C@@H](O)[C@H]1O [ATP]

# Target: T1, CIRBP
# Test: 1H-15N HSQC NMR chemical shift perturbation
# Type: binding
# Settings: 17 μM 15N-CIRBP; 10 mM ligand; 50 mM sodium phosphate, 150 mM NaCl, pH 6.5, 298 K; RRM and RG/RGG region
row,SMILES,1H-15N HSQC NMR chemical shift perturbation
1,Nc1ncnc2c1ncn2[C@@H]1O[C@H](COP(=O)(O)OP(=O)(O)O)[C@@H](O)[C@H]1O [ADP],"ADP and NAD^+ showed binding to CIRBP (Figure 2a,c)"
2,Nc1ncnc2c1ncn2[C@@H]1O[C@H](COP(=O)(O)O)[C@@H](O)[C@H]1O [AMP],"the other tested nucleotides (ATP, AMP)"
3,NC(=O)c1ccc[n+]([C@@H]2O[C@H](COP(=O)(O)OP(=O)(O)OC[C@H]3O[C@@H](n4cnc5c(N)ncnc54)[C@H](O)[C@@H]3O)[C@@H](O)[C@H]2O)c1 [NAD+],"ADP and NAD^+ showed binding to CIRBP (Figure 2a,c)"
4,NC(=O)C1=CN([C@@H]2O[C@H](COP(=O)(O)OP(=O)(O)OC[C@H]3O[C@@H](n4cnc5c(N)ncnc54)[C@H](O)[C@@H]3O)[C@@H](O)[C@H]2O)C=CC1 [NADH],"dinucleotides (NADH, NADP^+ and NADPH) showed significant binding to CIRBP"
5,NC(=O)C1=CN([C@@H]2O[C@H](COP(=O)(O)OP(=O)(O)OC[C@H]3O[C@@H](n4cnc5c(N)ncnc54)[C@H](OP(=O)(O)O)[C@@H]3O)[C@@H](O)[C@H]2O)C=CC1 [NADPH],"dinucleotides (NADH, NADP^+ and NADPH) showed significant binding to CIRBP"
